Measured values: ChEMBL document CHEMBL3616428, “Recent developments regarding the use of thieno[2,3-d]pyrimidin-4-one derivatives in medicinal chemistry, with a focus on their synthesis and anticancer properties” (Eur J Med Chem, 2015)

Key:
[1] = system: HCT-116; experiment: Anticancer activity against human HCT116 cells; type: functional, cell-based
[2] = system: HCT-116; experiment: Potency index, ratio imatinib IC50 to compound IC50 for human HCT116 cells; type: functional
[3] = system: HepG2; experiment: Anticancer activity against human HepG2 cells; type: functional, cell-based
[4] = system: HepG2; experiment: Anticancer activity against human HepG2 cells after 72 hrs by MTT assay; type: functional, cell-based; conditions: HepG2, 72 h
[5] = system: MCF7; experiment: Anticancer activity against human MCF7 cells at 40 ug/ml after 72 hrs by MTT assay; type: functional; conditions: MCF7, 72 h
[6] = system: MCF7; experiment: Anticancer activity against human MCF7 cells after 72 hrs by MTT assay; type: functional, cell-based; conditions: MCF7, 72 h
[7] = system: HepG2; experiment: Anticancer activity against human HepG2 cells at 40 ug/ml after 72 hrs by MTT assay; type: functional; conditions: HepG2, 72 h
[8] = Anticancer activity against human […] cells after 72 hrs by MTT assay; type: functional, cell-based
[9] = Anticancer activity against human Chronic myeloid leukemia cells at 20 uM after 24 hrs by MTT assay; type: functional; conditions: Leukemia cell
[10] = Anticancer activity against human Chronic myeloid leukemia cells at 10 uM after 24 hrs by MTT assay; type: functional; conditions: Leukemia cell
[11] = target: Poly [ADP-ribose] polymerase 1 (Homo sapiens, UniProt P09874); experiment: Inhibition of PARP1 (unknown origin)
Poly [ADP-ribose] polymerase 1, sequence (P09874 whole entry): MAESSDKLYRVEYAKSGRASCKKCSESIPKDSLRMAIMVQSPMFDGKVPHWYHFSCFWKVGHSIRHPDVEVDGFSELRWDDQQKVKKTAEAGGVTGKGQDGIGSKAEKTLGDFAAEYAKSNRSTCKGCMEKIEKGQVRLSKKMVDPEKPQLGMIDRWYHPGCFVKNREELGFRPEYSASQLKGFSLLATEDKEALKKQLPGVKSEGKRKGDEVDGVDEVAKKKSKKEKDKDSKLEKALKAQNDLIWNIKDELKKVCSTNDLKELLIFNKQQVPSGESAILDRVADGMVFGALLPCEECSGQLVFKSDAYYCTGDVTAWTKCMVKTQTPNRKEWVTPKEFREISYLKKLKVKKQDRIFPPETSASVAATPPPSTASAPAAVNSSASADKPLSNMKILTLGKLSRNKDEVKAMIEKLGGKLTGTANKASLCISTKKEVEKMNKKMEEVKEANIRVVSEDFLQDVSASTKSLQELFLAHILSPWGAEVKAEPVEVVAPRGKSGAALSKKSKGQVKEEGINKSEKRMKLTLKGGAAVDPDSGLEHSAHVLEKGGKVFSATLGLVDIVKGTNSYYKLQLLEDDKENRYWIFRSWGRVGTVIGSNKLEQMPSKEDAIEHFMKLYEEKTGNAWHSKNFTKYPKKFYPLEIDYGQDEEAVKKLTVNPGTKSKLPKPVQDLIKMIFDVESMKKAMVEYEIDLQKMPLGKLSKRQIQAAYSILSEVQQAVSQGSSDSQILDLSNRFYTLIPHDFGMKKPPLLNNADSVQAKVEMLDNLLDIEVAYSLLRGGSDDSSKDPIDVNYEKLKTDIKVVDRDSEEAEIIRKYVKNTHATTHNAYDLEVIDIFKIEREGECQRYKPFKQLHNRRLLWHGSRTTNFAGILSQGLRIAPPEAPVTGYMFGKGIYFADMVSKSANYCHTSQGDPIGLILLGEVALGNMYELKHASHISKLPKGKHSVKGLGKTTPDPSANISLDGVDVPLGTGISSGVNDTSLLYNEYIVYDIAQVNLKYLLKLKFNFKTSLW

SMILES: O=c1[nH]c(CNc2ccccc2)nc2sc3c(c12)CCCCCC3
- IC50 [1]: 11.9 µM
- Ratio IC50 [2]: 2.89

SMILES: O=c1[nH]c(CNc2ccc(Cl)cc2)nc2sc3c(c12)CCCCCC3
- IC50 [1]: 12.4 µM
- Ratio IC50 [2]: 1.07

SMILES: CC(=O)OC[C@H](OC(C)=O)[C@@H](OC(C)=O)[C@H](OC(C)=O)[C@H](OC(C)=O)c1nc2c3c4c(sc3nc(C)n2n1)CCc1ccccc1-4
- IC50 [3]: 12 µM

SMILES: O=c1c2c3c(sc2ncn1Cc1ccc(Br)cc1)CCC=C3
- IC50 [4]: 15 µM
- inhibition at 40 µg/mL [5]: 66.8%
- IC50 [6]: 78.9 µM
- inhibition at 40 µg/mL [7]: 66.8%
- IC50 [8]: 45 µM

SMILES: CC(C)(O)C#Cc1ncnc2sc3c(c12)CCC3
- inhibition at 20 µM [9]: 54%
- inhibition at 10 µM [10]: 30%

SMILES: Cc1csc2ncnc(C#Cc3ccccn3)c12
- inhibition at 20 µM [9]: 60%
- inhibition at 10 µM [10]: 32%

SMILES: NCc1nc2sc3c(c2c(=O)[nH]1)CCC3
- IC50 [11]: 17 µM

SMILES: O=c1[nH]cc(F)c(=O)[nH]1 [FLUOROURACIL]
- inhibition at 40 µg/mL [5]: 68.2%
- inhibition at 40 µg/mL [7]: 68.2%

SMILES: Cc1ccc(NC(=O)c2ccc(CN3CCN(C)CC3)cc2)cc1Nc1nccc(-c2cccnc2)n1 [IMATINIB]
- IC50 [1]: 34.4 µM
